Tests used:
[1] = tested on: cell aggregate containing a retinal tissue (CRX::Venus knock-in human ES cells); experiment: Continuous epithelium rate of retinal tissue after adding a substance to the medium of culture method [B] (day 38 to 56); assay type: cell-based; settings: day 38 to day 54, 55 or 56
Experimental: A cell aggregate containing a retinal tissue was prepared by the method described in “Kuwahara et al. Nat Commun 2015, 19(6), 6286” after modification in part. That is, the aforementioned cultured ES cells were individually dispersed using TrypLE Express (Invitrogen), and the individually dispersed human ES cells were suspended in 100 μL of a serum-free medium in a cell non-adhesive 96 well culture plate (SUMILON spheroid plate, SUMITOMO BAKELITE CO., LTD.) at 9×10^3 cells per well to allow rapid formation of aggregates, after which they were cultured at 37° C., 5% CO2. As the serum-free medium therefor, a serum-free medium obtained by adding 10% KSR, 450 μM 1-monothioglycerol, 1× Chemically defined lipid concentrate, 5 mg/mL BSA, 20 μM Y27632 to a 1:1 mixture of F-12 medium and IMDM medium was used. At 6 days after the start of suspension culture, BMP4 at a final concentration of 1.5 nM was added and suspension culture was continued. A half amount of the culture medium in the well was exchanged with the above-mentioned medium not supplemented with a BMP signal transduction pathway agonist every 3 or 4 days. A cell aggregate containing a retinal tissue at day 18 from the start of suspension culture was cultured in suspension in a serum-free medium containing 3 μM CHIR99021 and 5 μM SU5402 (DMEM/F12 medium supplemented with 1% N2 supplement) for 4 days, namely, until day 22 from the start of suspension culture. Thereafter, suspension culture was continued using the serum-containing medium. The serum-containing medium used then and the culture method are shown in the following [A] to [C]. The suspension culture of the cell aggregate containing the retinal tissue was continued until it was appropriately used for analysis and the like. • [A] From day 22 to day 56 from the start of suspension culture, suspension culture was performed using a medium obtained by adding 10% bovine calf serum, 1% N2 supplement, and 100 μM taurine to the DMEM/F12 medium. • [B] From day 22 to day 38 from the start of suspension culture, suspension culture was performed using a medium obtained by adding 10% bovine calf serum, 1% N2 supplement, and 100 μM taurine to the DMEM/F12 medium; and from day 38 to day 56 from the start of suspension culture, suspension culture was performed using a 1:3 mixed medium of a medium obtained by adding 10% bovine calf serum, 1% N2 supplement, and 100 μM taurine to the DMEM/F12 medium and a medium obtained by adding 10% bovine calf serum, 2% B27 supplement, and 100 μM taurine to the Neurobasal medium. • [C] From day 22 to day 56 from the start of suspension culture, suspension culture was performed using a medium obtained by adding 10% bovine calf serum, 2% B27 supplement, and 100 μM taurine to the Neurobasal medium (manufactured by Thermo Scientific, 21103049).
Thus, among the substances contained in the medium used in the culture method [B] from day 38 to day 56 from the start of suspension culture in the culturing method [B], a substance that may greatly affect cell differentiation, cell protection, and cell death of retinal tissues was added to the medium used in the culture method [A], and whether it contributes to the improvement of continuous epithelium rate was studied. […]

[2] = tested on: cell aggregate containing a retinal tissue (CRX::Venus knock-in human ES cells); experiment: Continuous epithelium rate of retinal tissue after adding a substance to the medium of culture method [A]; assay type: cell-based; settings: day 38 to day 54, 55 or 56
Experimental: A cell aggregate containing a retinal tissue was prepared by the method described in “Kuwahara et al. Nat Commun 2015, 19(6), 6286” after modification in part. That is, the aforementioned cultured ES cells were individually dispersed using TrypLE Express (Invitrogen), and the individually dispersed human ES cells were suspended in 100 μL of a serum-free medium in a cell non-adhesive 96 well culture plate (SUMILON spheroid plate, SUMITOMO BAKELITE CO., LTD.) at 9×10^3 cells per well to allow rapid formation of aggregates, after which they were cultured at 37° C., 5% CO2. As the serum-free medium therefor, a serum-free medium obtained by adding 10% KSR, 450 μM 1-monothioglycerol, 1× Chemically defined lipid concentrate, 5 mg/mL BSA, 20 μM Y27632 to a 1:1 mixture of F-12 medium and IMDM medium was used. At 6 days after the start of suspension culture, BMP4 at a final concentration of 1.5 nM was added and suspension culture was continued. A half amount of the culture medium in the well was exchanged with the above-mentioned medium not supplemented with a BMP signal transduction pathway agonist every 3 or 4 days. A cell aggregate containing a retinal tissue at day 18 from the start of suspension culture was cultured in suspension in a serum-free medium containing 3 μM CHIR99021 and 5 μM SU5402 (DMEM/F12 medium supplemented with 1% N2 supplement) for 4 days, namely, until day 22 from the start of suspension culture. Thereafter, suspension culture was continued using the serum-containing medium. The serum-containing medium used then and the culture method are shown in the following [A] to [C]. The suspension culture of the cell aggregate containing the retinal tissue was continued until it was appropriately used for analysis and the like. • [A] From day 22 to day 56 from the start of suspension culture, suspension culture was performed using a medium obtained by adding 10% bovine calf serum, 1% N2 supplement, and 100 μM taurine to the DMEM/F12 medium. • [B] From day 22 to day 38 from the start of suspension culture, suspension culture was performed using a medium obtained by adding 10% bovine calf serum, 1% N2 supplement, and 100 μM taurine to the DMEM/F12 medium; and from day 38 to day 56 from the start of suspension culture, suspension culture was performed using a 1:3 mixed medium of a medium obtained by adding 10% bovine calf serum, 1% N2 supplement, and 100 μM taurine to the DMEM/F12 medium and a medium obtained by adding 10% bovine calf serum, 2% B27 supplement, and 100 μM taurine to the Neurobasal medium. • [C] […]

For vitamin B12, the continuous epithelium rate ([1]; final concentration 0.68 mg/L in culture method [B] medium) was “contributed to a decrease”.
With `CC(=O)[C@H]1CC[C@H]2[C@@H]3CCC4=CC(=O)CC[C@]4(C)[C@H]3CC[C@]12C` [progesterone, reference compound] the continuous epithelium rate ([2]; final concentration 100 nM added to culture method [A] medium, vs nothing added (progesterone)) was “similarly decreased”.
For `O=c1[nH]cnc2nc[nH]c12` [hypoxanthine], the continuous epithelium rate ([1]; final concentration 15 μM in culture method [B] medium) was “contributed to a decrease”.
`N[C@@H](CCC(=O)O)C(=O)O` [L-glutamic acid] was tested, and the continuous epithelium rate ([1]; L-glutamic acid alone, final concentration 50 μM in culture method [B] medium) was “contributed to the decrease”.
With `CSCC[C@H](N)C(=O)O` [methionine] the continuous epithelium rate ([2]; final concentration 26.81 mg/L in culture method [A] medium, vs nothing added) was “increased”.
With `C[C@]12C[C@H](O)[C@H]3[C@@H](CCC4=CC(=O)CC[C@@]43C)[C@@H]1CC[C@@H]2C(=O)CO` [corticosterone, reference compound] the continuous epithelium rate ([2]; final concentration 100 nM added to culture method [A] medium, vs nothing added (corticosterone)) was “increased”.
For `Cc1cn([C@H]2C[C@H](O)[C@@H](CO)O2)c(=O)[nH]c1=O` [thymidine], the continuous epithelium rate ([1]; final concentration 1.5 μM in culture method [B] medium) was “contributed to a decrease”.
`N[C@@H](CC(=O)O)C(=O)O` [L-aspartic acid] was tested, and the continuous epithelium rate ([1]; L-aspartic acid alone, final concentration 50 μM in culture method [B] medium) was “decreased the continuous epithelium rate slightly, but the difference was not significant”.
`N[C@@H](CS)C(=O)O` [cysteine] was tested, and the continuous epithelium rate ([2]; final concentration 0.22 mM in culture method [A] medium, vs nothing added) was “decreased”.

— patent publication US12534706B2, “Method for maturation of retinal tissue containing continuous epithelium” (RIKEN, priority 2017, dated 2026)
